Assay results as given in ChEMBL document CHEMBL4251695, “Data Sets Representative of the Structures and Experimental Properties of FDA-Approved Drugs” (ACS Med Chem Lett, 2018).

Tests used:
Format in all cases: ADME, organism-based
Details in all cases: in vivo
Homo sapiens = organism: Homo sapiens; assay: Half life in human
[1] = Clearance in human
[2] = Cmax in human

Row | clearance [1] [mL/min] | Compound | other results
1 | – | COc1cc2c(cc1OC)[C@@H](Cc1cc(OC)c(OC)c(OC)c1)[N+](C)(CCCOC(=O)CC/C=C/CCC(=O)OCCC[N+]1(C)CCc3cc(OC)c(OC)cc3[C@H]1Cc1cc(OC)c(OC)c(OC)c1)CC2 (some centres undefined) | t1/2 (Homo sapiens): 2 min
2 | 115000 | CCCCC[C@H](O)/C=C/[C@H]1[C@H](O)CC(=O)[C@@H]1CCCCCCC(=O)O [ALPROSTADIL] | –
3 | – | CC(C)C[C@H]1C(=O)N2CCC[C@H]2[C@]2(O)O[C@](NC(=O)[C@@H]3C=C4c5cccc6[nH]c(Br)c(c56)C[C@H]4N(C)C3)(C(C)C)C(=O)N12 [BROMOCRIPTINE] | Cmax [2]: 0.711 nM
4 | 0.233 | Nc1ccn([C@@H]2O[C@H](CO)[C@@H](O)[C@@H]2O)c(=O)n1 [CYTARABINE] | –
